US20140088306A1, “RADIOACTIVE FLUORINE-LABELED QUINOXALINE COMPOUND” (Nihon Medi-Physics Co., Ltd., priority 2012, published 2014)

Biological target: T1, Aβ1-42 aggregates (Homo sapiens, UniProt P05067)
T1 construct: Aβ1-42 aggregates (Peptide Institute, Inc, Osaka) were dissolved in 0.1 mol/L phosphate-buffered saline; purchased Peptide Institute, Inc., Osaka
Experiment: Binding evaluation using Aβ peptide aggregation in solution (Example 13)
Conditions: for Ki: inhibition of [^125I]IMPY binding to Aβ1-42 aggregates, value following ± shows SE, read-out: Kl
Method: Aβ1-42 peptide (Peptide Institute, Inc., Osaka) was gently dissolved at a concentration of 0.25 mg/mL in a PBS solution (pH 7.4), which was then incubated at 37° C. for 42 hours to prepare an Aβ1-42 aggregate PBS solution.
Thereafter, the resultant was filtered through Whatman (R) GF/B filter using a Brandell M-24 cell harvester, and the radioactivity of the filter was measured using a γ counter (Wallac 1470 Wizard, from Perkin-Elmer).
The half inhibition concentration (IC50) value was determined from a replacement straight line using GraphPad Prism 5.0, and the inhibition constant (Ki) was calculated using the Cheng-Prusoff equation: the above-described Expression (1).

T1 sequence (P05067 672-713 limits assumed): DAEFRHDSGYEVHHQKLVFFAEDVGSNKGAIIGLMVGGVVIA

| Compound | Ki [µM] | binding affinity relative to D1 (Ki of D2 compared with D1) [times] |
| --- | --- | --- |
| Nc1ccc(-c2cnc3cc(OCCF)ccc3n2)cc1 [Compound D1, 4-(6-(2-Fluoroethoxy)quinoxalin-2-yl)aniline] | 0.242 ± 0.029 | – |
| CNc1ccc(-c2cnc3cc(OCCF)ccc3n2)cc1 [Compound D2, 4-(6-(2-Fluoroethoxy)quinoxalin-2-yl)-N-methylaniline] | 0.0157 ± 0.00128 | ≥ 10 |
